The values below are quoted from earlier work in patent US6974588B1, “Transdermal patch for delivering volatile liquid drugs” (Elan Pharma International Limited, priority 1999, dated 2005).

The structures appear in SMILES notation.

The series relates to nicotine dependence. The conditions noted are these: oral administration, literature report.

`CNC1(C)C2CCC(C2)C1(C)C` (stereo not shown) [oral mecamylamine, mecamylamine]: the “ad hoc cigarette consumption” value was “increased”.
